This assay deals with amphetamine-induced rats. The conditions noted are these: Study 1, 2.5 mg/kg, compared to vehicle-amphetamine group. As to the method:
Locomotor activity of the rats was tested in open field arena.

Structures are written as SMILES.

Here are results for one compound from patent US11844786B2 (ADEPTIO PHARMACEUTICALS LIMITED, priority 2017, dated 2023).

Regarding `COc1cc2c(cc1OC)[C@@H]1C[C@H](O)[C@@H](CC(C)C)CN1CC2` [(−)-α-DHTBZ, (2S, 3S, 11bS)-3-isobutyl-9,10-dimethoxy-1,3,4,6,7,11b-hexahydro-2H-pyrido[2,1,a]isoquinolin-2-ol], the stereotypic behaviour result was “did not lead to lower locomotor activity or reduced stereotypic behaviour”. For the same compound, for the setting “listed as (−)-α-isomer”, the “locomotor activity (distance travelled)” value is reported as “very little, if any, reduction”.
